The subject of series [1] is complement activation in factor B-depleted human sera. The class given is biochemical. How it is done:
Peptides were diluted to 0.77 mM in factor B-depleted human sera (Complement Technologies, Inc.) and incubated for 1 hour at 37° C. These peptides were then diluted with GVBS^++ to equal 2.5/s serum, of which 0.25 ml was combined with 0.4 ml of GVBS^++ and 0.1 ml of sensitized sheep red blood cells (RBCs) and again incubated for 1 hour at 37° C. The procedure was stopped by the addition of 4.0 ml of GVBS^−−, centrifuged for 5 minutes at 1,620×g, and the absorbance of the supernatants was read at 412 nm in a spectrophotometer. The percent lysis of each sample was standardized to that of the serum only control.
The final concentration of peptide in factor B-depleted serum was 0.77 mM. Each peptide was evaluated in triplicate and the mean values are reported. […] In the hemolytic assay, soluble peptides are standardized to water and insoluble peptides standardized to DMSO.
Polar Assortant peptides were serially diluted in undiluted factor B-depleted human sera (Complement Technologies, Inc.) and incubated for 1 hour at 37° C. Water, GVBS^++ and DMSO were included as controls. These peptides were then diluted with GVBS^++ to equal 2.5/s serum, of which 0.25 ml was combined with 0.4 ml of GVBS^++ and 0.1 ml of sensitized sheep red blood cells (RBCs) and again incubated for 1 hour at 37° C. The procedure was stopped by the addition of 4.0 ml of GVBS^−−, centrifuged for 5 minutes at 1,620×g, and the absorbance of the supernatants was read at 412 nm in a spectrophotometer. The percent lysis of each sample was standardized to that of the serum only control.
The final concentration of peptide in factor B-depleted serum was 0.77 mM. […] In the hemolytic assay, soluble peptides were standardized to water and insoluble peptides standardized to DMSO.
The final concentration of peptide in factor B-depleted serum was 0.77 mM. […] In the hemolytic assay, soluble peptides are standardized to water and insoluble peptides standardized to DMSO.

Another series is described as follows: Solubility in water. The class given is physicochemical.
Where [2] appears, read: Table 5, sarcosine substitution peptides.
Where [3] appears, read: Table 7, PEGylated and sarcosine/alanine substitution peptides.

The record followed here is patent US10005818B2, “Derivative peptide compounds and methods of use” (REALTA HOLDINGS, LLC, priority 2010, dated 2018).

Square brackets hold non-standard residues; d marks the D form. Ends that are not written are not given here. Peptide text beside a SMILES is read from it. Sar = CNCC(=O)O

Regarding `CC[C@H](C)[C@H](N)C(=O)N[C@@H](C)C(=O)N[C@@H](CC(C)C)C(=O)N[C@H](C(=O)N[C@@H](CC(C)C)C(=O)N[C@@H](CCC(=O)O)C(=O)N1CCC[C@H]1C(=O)N[C@H](C(=O)N(C)CC(=O)N[C@@H](CS)C(=O)N[C@@H](CCC(N)=O)C(=O)N[C@@H](CCC(=O)O)C(=O)N[C@@H](CCCNC(=N)N)C(=O)N[C@@H](C)C(=O)N[C@@H](C)C(=O)O)[C@@H](C)CC)[C@@H](C)CC` [PA-C9Sar] (H-IALILEPI[Sar]CQERAA-OH; N-terminus and C-terminus assumed), in series [1], the “Hemolysis (%)” value turned out to be 5.63%. Moreover, the “solubility in water / aqueous solutions” value in “Solubility in water” is recorded as “water soluble”. The Solubility in water result in “Solubility in water” (setting [2]) was “Yes”.
As for `CC[C@H](C)[C@H](N)C(=O)N[C@@H](C)C(=O)N[C@@H](CC(C)C)C(=O)N[C@H](C(=O)N[C@@H](CC(C)C)C(=O)N[C@@H](C)C(=O)N(C)CC(=O)N[C@H](C(=O)N[C@@H](CS)C(=O)N[C@@H](CS)C(=O)N[C@@H](CCC(N)=O)C(=O)N[C@@H](C)C(=O)N[C@@H](CCCNC(=N)N)C(=O)N[C@@H](C)C(=O)N[C@@H](C)C(=O)O)[C@@H](C)CC)[C@@H](C)CC` [Peptide E6AE12AP7Sar] (H-IALILA[Sar]ICCQARAA-OH; N-terminus and C-terminus assumed), the “Hemolysis (%)” value in series [1] was 4.60%. For the same molecule, the Solubility in water result in the series “Solubility in water” (setting [3]) is “Yes”.
Taken in the same sequence, the figures for `CC[C@H](C)[C@H](N)C(=O)N[C@@H](C)C(=O)N[C@@H](CC(C)C)C(=O)N[C@H](C(=O)N[C@@H](CC(C)C)C(=O)N[C@@H](CCC(=O)O)C(=O)N(C)CC(=O)N[C@H](C(=O)N[C@@H](CS)C(=O)N[C@@H](CS)C(=O)N(C)CC(=O)N[C@@H](CCC(=O)O)C(=O)N[C@@H](CCCNC(=N)N)C(=O)N[C@@H](C)C(=O)N[C@@H](C)C(=O)O)[C@@H](C)CC)[C@@H](C)CC` [Peptide Q11SarP7Sar, IALILE(Sar)ICC(Sar)ERAA] (H-IALILE[Sar]ICC[Sar]ERAA-OH; N-terminus and C-terminus assumed) were 3.22% and “Yes”.
For “ALILEPICC[Sar]ERAA (cysteine pairing not given here) [PA-Q11Sar]”, the “Hemolysis (%)” value in series [1] is 3.02%. Also, in the series “Solubility in water” (setting [2]), the Solubility in water entry is on record as “No”.
Taken in the same sequence, the figures for `CC[C@H](C)[C@H](N)C(=O)N[C@@H](C)C(=O)N[C@@H](CC(C)C)C(=O)N[C@H](C(=O)N(C)CC(=O)N[C@@H](CCC(=O)O)C(=O)N1CCC[C@H]1C(=O)N[C@H](C(=O)N[C@@H](CS)C(=O)N[C@@H](CS)C(=O)N[C@@H](CCC(N)=O)C(=O)N[C@@H](CCC(=O)O)C(=O)N[C@@H](CCCNC(=N)N)C(=O)N[C@@H](C)C(=O)N[C@@H](C)C(=O)O)[C@@H](C)CC)[C@@H](C)CC` [PA-L5Sar] (H-IALI[Sar]EPICCQERAA-OH; N-terminus and C-terminus assumed) were 85.13% and “Yes”.
Turning to `CC[C@H](C)[C@H](N)C(=O)N[C@@H](C)C(=O)N[C@@H](CC(C)C)C(=O)N[C@H](C(=O)N[C@@H](CC(C)C)C(=O)N[C@@H](CCC(=O)O)C(=O)N1CCC[C@H]1C(=O)N[C@H](C(=O)N[C@@H](CS)C(=O)N[C@@H](CS)C(=O)N[C@@H](CCC(N)=O)C(=O)N[C@@H](CCC(=O)O)C(=O)N(C)CC(=O)N[C@@H](C)C(=O)N[C@@H](C)C(=O)O)[C@@H](C)CC)[C@@H](C)CC` [PA-R13Sar], in series [1], the “Hemolysis (%)” value was 3.42%. Besides, in “Solubility in water” (setting [2]), the Solubility in water result is “No”.
For `CC[C@H](C)[C@H](N)C(=O)N[C@@H](C)C(=O)N[C@@H](CC(C)C)C(=O)N[C@H](C(=O)N[C@@H](CC(C)C)C(=O)N[C@@H](CCC(=O)O)C(=O)N(C)CC(=O)N[C@H](C(=O)N[C@@H](CS)C(=O)N[C@@H](CS)C(=O)N[C@@H](CCC(N)=O)C(=O)N[C@@H](CCC(=O)O)C(=O)N[C@@H](CCCNC(=N)N)C(=O)N[C@@H](C)C(=O)N[C@@H](C)C(=O)O)[C@@H](C)CC)[C@@H](C)CC` [PA-P7Sar] (H-IALILE[Sar]ICCQERAA-OH; N-terminus and C-terminus assumed), in series [1], the “Hemolysis (%)” value stood at 3.01%. Besides, in the series “Solubility in water”, the “solubility in water / aqueous solutions” value is “water soluble”. In addition, the Solubility in water entry in the series “Solubility in water” (setting [2]) is reported as “Yes”.
For the molecule `CC[C@H](C)[C@H](N)C(=O)N[C@@H](C)C(=O)N[C@@H](CC(C)C)C(=O)N[C@H](C(=O)N[C@@H](CC(C)C)C(=O)N[C@@H](CCC(=O)O)C(=O)N(C)CC(=O)N[C@H](C(=O)N(C)CC(=O)N[C@@H](CS)C(=O)N[C@@H](CCC(N)=O)C(=O)N[C@@H](CCC(=O)O)C(=O)N[C@@H](CCCNC(=N)N)C(=O)N[C@@H](C)C(=O)N[C@@H](C)C(=O)O)[C@@H](C)CC)[C@@H](C)CC` [PA-P7SarC9Sar, IALILE(Sar)I(Sar)CQERAA] (H-IALILE[Sar]I[Sar]CQERAA-OH), in series [1], the “Hemolysis (%)” value is listed as 82.72%. Besides, the Solubility in water entry in the series “Solubility in water” (setting [3]) is recorded as “Yes”.
For the molecule `CC[C@H](C)[C@H](N)C(=O)N[C@@H](C)C(=O)N[C@@H](CC(C)C)C(=O)N[C@H](C(=O)N[C@@H](CC(C)C)C(=O)N[C@@H](CCC(=O)O)C(=O)N1CCC[C@H]1C(=O)N(C)CC(=O)N[C@@H](CS)C(=O)N[C@@H](CS)C(=O)N[C@@H](CCC(N)=O)C(=O)N[C@@H](CCC(=O)O)C(=O)N[C@@H](CCCNC(=N)N)C(=O)N[C@@H](C)C(=O)N[C@@H](C)C(=O)O)[C@@H](C)CC` [PA-I8Sar, IALILEP(Sar)CCQERAA], the “Hemolysis (%)” value in series [1] came to 33.92%. Further, the Solubility in water result in “Solubility in water” (setting [2]) was “Yes”.
For the molecule `CC[C@H](C)[C@H](N)C(=O)N[C@@H](C)C(=O)N[C@@H](CC(C)C)C(=O)N[C@H](C(=O)N[C@@H](CC(C)C)C(=O)N(C)CC(=O)N1CCC[C@H]1C(=O)N[C@H](C(=O)N(C)CC(=O)N[C@@H](CS)C(=O)N[C@@H](CCC(N)=O)C(=O)N[C@@H](CCC(=O)O)C(=O)N[C@@H](CCCNC(=N)N)C(=O)N[C@@H](C)C(=O)N[C@@H](C)C(=O)O)[C@@H](C)CC)[C@@H](C)CC` [Peptide E6SarC9Sar, IALIL(Sar)PI(Sar)CQERAA] (H-IALIL[Sar]PI[Sar]CQERAA-OH), the “Hemolysis (%)” value in series [1] turned out to be 6.21%. Moreover, the Solubility in water result in the series “Solubility in water” (setting [3]) was “Yes”.
In the same order, the values of `CC[C@H](C)[C@H](N)C(=O)N[C@@H](C)C(=O)N[C@@H](CC(C)C)C(=O)N[C@H](C(=O)N[C@@H](CC(C)C)C(=O)N[C@@H](CCC(=O)O)C(=O)N1CCC[C@H]1C(=O)N[C@H](C(=O)N(C)CC(=O)N[C@@H](C)C(=O)N[C@@H](CCC(N)=O)C(=O)N[C@@H](CCC(=O)O)C(=O)N[C@@H](CCCNC(=N)N)C(=O)N[C@@H](C)C(=O)N[C@@H](C)C(=O)O)[C@@H](C)CC)[C@@H](C)CC` [PA-C9SarC10A] (H-IALILEPI[Sar]AQERAA-OH) are 99.37% and “Yes”.
Turning to `CC[C@H](C)[C@H](N)C(=O)N[C@@H](C)C(=O)N[C@@H](CC(C)C)C(=O)N[C@H](C(=O)N[C@@H](CC(C)C)C(=O)N[C@@H](CCC(=O)O)C(=O)N1CCC[C@H]1C(=O)N[C@H](C(=O)N(C)CC(=O)N[C@@H](CS)C(=O)N(C)CC(=O)N[C@@H](CCC(=O)O)C(=O)N[C@@H](CCCNC(=N)N)C(=O)N[C@@H](C)C(=O)N[C@@H](C)C(=O)O)[C@@H](C)CC)[C@@H](C)CC` [Peptide Q11SarC9Sar] (H-IALILEPI[Sar]C[Sar]ERAA-OH), the “Hemolysis (%)” value in series [1] stood at 15.42%. Moreover, in “Solubility in water” (setting [3]), the Solubility in water result is on record as “Yes”.
As to `CC[C@H](C)[C@H](N)C(=O)N[C@@H](C)C(=O)N[C@@H](CC(C)C)C(=O)N[C@H](C(=O)N[C@@H](CC(C)C)C(=O)N(C)CC(=O)N1CCC[C@H]1C(=O)N[C@H](C(=O)N[C@@H](CS)C(=O)N[C@@H](CS)C(=O)N[C@@H](CCC(N)=O)C(=O)N[C@@H](CCC(=O)O)C(=O)N[C@@H](CCCNC(=N)N)C(=O)N[C@@H](C)C(=O)N[C@@H](C)C(=O)NCCOCCOCCOCCOCCOCCOCCOCCOCCOCCOCCOCCOCCOCCOCCOCCOCCOCCOCCOCCOCCOCCOCCOCCOCCC(=O)O)[C@@H](C)CC)[C@@H](C)CC` [PA-E6Sar-dPEG24], the “Hemolysis (%)” value in series [1] stood at 12.88%. Besides, in “Solubility in water” (setting [3]), the Solubility in water entry is listed as “Yes”.
Consider `CC[C@H](C)[C@H](N)C(=O)N[C@@H](C)C(=O)N[C@@H](CC(C)C)C(=O)N[C@H](C(=O)N[C@@H](CC(C)C)C(=O)N[C@@H](CCC(=O)O)C(=O)N1CCC[C@H]1C(=O)N[C@H](C(=O)N[C@@H](CS)C(=O)N[C@@H](CS)C(=O)N[C@@H](CCC(N)=O)C(=O)N[C@@H](CCC(=O)O)C(=O)N[C@@H](CCCNC(=N)N)C(=O)N(C)CC(=O)N[C@@H](C)C(=O)O)[C@@H](C)CC)[C@@H](C)CC` [PA-A14Sar], for which the “Hemolysis (%)” value in series [1] is given as 3.88%. For the same molecule, in the series “Solubility in water” (setting [2]), the Solubility in water result is given as “No”.
